Data published in US10829523B2, “Anti-tumor peptides and use thereof” (TOAGOSEI CO., LTD., priority 2017, dated 2020).
Peptide text beside a SMILES is read from it.

Key:
Conditions in all cases: 5 h incubation, n=3 average
[1] = system: normal human mammary epithelial cells; assay: Cell survival rate test (WST-8, Cell Counting Kit-8) on normal cells for comparison; type: cell-based
Method: (§1) For any one of each sample peptide synthesized in the above Test Example 1, an anti-tumor activity was evaluated by having various kinds of cultured tumor cells as a subject.
(§2) Specifically, as a tumor cell for test, cultured mammary cancer cell line (MCF-7), cultured mammary cancer cell line (MDA-MB-231), cultured pancreatic cancer cell line (MIA PaCa-2), cultured prostate cancer cell line (PC-3), and cultured prostate cancer cell line (DU-145), which are currently available on the market, were used. Furthermore, as a subject for comparison, commercially available cultured cell line of normal human mammary epithelial cells was used. Details of the test are described below.
(§3) Namely, those cell lines were cultured in advance in DMEM medium (that is, Dulbecco's MEM medium (DMEM medium: product of Gibco) containing 10% fetal bovine serum (FBS: product of Gibco), 2 mM L-glutamine, 50 unit/mL penicillin, and 50 μg/mL of streptomycin), and adjusted such that the number of cells per well of a 96-hole (well) plate is about 1×10^4. The medium amount was 100 μL per well.
(§4) Subsequently, the 96-hole (well) plate was kept in a CO2 incubator and pre-incubation was carried out for about 1 day (22 hours to 23 hours) at conditions of 37° C., 5% CO2.
(§5) After that, a test medium containing the peptide at each concentration was prepared such that the peptide concentration in any sample to be an evaluation subject is any one of 3.13 μM, 6.25 μM, 12.5 μM, 25 μM, 50 μM, and 100 μM. Then, the test medium was supplied, in an amount of 90 μL per well, to a well in which the cells as an evaluation subject have been cultured (that is, well after the above pre-incubation). In addition, the 96-hole (well) plate was returned to the CO2 incubator and incubated for 5 hours at conditions of 37° C., 5% CO2.
(§6) Furthermore, number (n) of the test wells for the test group added with each peptide at each peptide concentration was all set at 3. Thus, the result values shown in the following table correspond to an average value of the results which have been obtained from each of test well number of 3. Cell survival rate (%) was determined as described below.
(§7) Upon completion of the incubation for 5 hours described above, the medium in each well was replaced with 100 μL of fresh medium not containing the peptide. Furthermore, “Cell Counting Kit-8” (product of Dojindo Laboratories) containing as a chromogenic reagent “Aqueous tetrazolium salt (WST-8)”, which is a reagent for measuring cell proliferation, was added in an amount of 10 μL to each well. After that, the 96-hole (well) plate was returned to the CO2 incubator and incubated for 1.5 hours at conditions of 37° C. 5% CO2.
(§8) Upon completion of the incubation, the cell culture solution added with the above reagent was recovered, and simultaneously, according to colorimetry by which absorbance at wavelength of 450 nm based on reduction of tetrazolium salt (value calibrated with absorbance at wavelength of 650 nm: A450-A650), the cell survival rate (%) was evaluated.

[2] = system: pancreatic cancer cell line (MIA PaCa-2); assay: Anti-tumor activity test, cell survival rate (WST-8); type: cell-based, human
Method: as §1, §2, §3, §4, §5, §6, §7, §8

[3] = system: prostate cancer cell line (DU-145); assay: as above; type: cell-based, human
Method: as §1, §2, §3, §4, §5, §6, §7, §8

[4] = system: mammary cancer cell line (MCF-7); assay: as above; type: cell-based, human
Method: as §1, §2, §3, §4, §5, §6, §7, §8

[5] = system: prostate cancer cell line (PC-3); assay: as above; type: cell-based, human
Method: as §1, §2, §3, §4, §5, §6, §7, §8

[6] = system: mammary cancer cell line (MDA-MB-231); assay: as above; type: cell-based, human
Method: as §1, §2, §3, §4, §5, §6, §7, §8

Compound	Cell survival rate (%) ([1]; peptide 12.5 μM)	Cell survival rate (%) ([1]; peptide 25 μM)	Cell survival rate (%) ([1]; peptide 50 μM)	Cell survival rate (%) ([1]; peptide 100 μM)	Cell survival rate (%) ([2]; peptide 12.5 μM)	Cell survival rate (%) ([2]; peptide 25 μM)	Cell survival rate (%) ([2]; peptide 50 μM)	Cell survival rate (%) ([2]; peptide 100 μM)	Cell survival rate (%) ([3]; peptide 12.5 μM)	Cell survival rate (%) ([3]; peptide 25 μM)	Cell survival rate (%) ([3]; peptide 50 μM)	Cell survival rate (%) ([3]; peptide 100 μM)	Cell survival rate (%) ([4]; peptide 12.5 μM)	Cell survival rate (%) ([4]; peptide 25 μM)	Cell survival rate (%) ([4]; peptide 50 μM)	Cell survival rate (%) ([4]; peptide 100 μM)	Cell survival rate (%) ([5]; peptide 12.5 μM)	Cell survival rate (%) ([5]; peptide 25 μM)	Cell survival rate (%) ([6]; peptide 50 μM)	Cell survival rate (%) ([6]; peptide 3.13 μM)	also measured
CC[C@H](C)[C@H](NC(=O)CNC(=O)[C@H](CC(C)C)NC(=O)[C@H](CC(C)C)NC(=O)[C@H](Cc1ccccc1)NC(=O)[C@@H](NC(=O)CNC(=O)[C@@H](NC(=O)CNC(=O)[C@H](CCCCN)NC(=O)[C@@H](N)CCSC)[C@@H](C)O)[C@@H](C)O)C(=O)N[C@@H](C)C(=O)NCC(=O)N[C@@H](CC(C)C)C(=O)N[C@@H](Cc1ccccc1)C(=O)N[C@H](C(=O)N[C@@H](CC(C)C)C(=O)N[C@@H](CCC(N)=O)C(=O)N[C@@H](CCCCN)C(=O)N[C@H](C(=O)N[C@H](C(=O)N[C@@H](CCC(N)=O)C(=O)N[C@@H](CCCNC(=N)N)C(=O)N[C@@H](CCCNC(=N)N)C(=O)N[C@@H](CCCNC(=N)N)C(=O)N[C@@H](CCCNC(=N)N)C(=O)N[C@@H](CCCNC(=N)N)C(=O)N[C@@H](CCCNC(=N)N)C(=O)N[C@@H](CCCNC(=N)N)C(=O)N[C@@H](CCCNC(=N)N)C(=O)N[C@@H](CCCNC(=N)N)C(N)=O)[C@@H](C)CC)C(C)C)[C@@H](C)O [Sample 2] (H-MKGTGTFLLGIAGLFTLQKVIQRRRRRRRRR-NH2; N-terminus assumed)	88.3%	82.1%	56.1%	42.7%	94.4%	91.3%	36.7%	7%	86.2%	75.2%	41.2%	16.4%	75.7%	49.1%	20.2%	17.6%	101.1%	80.9%	52.6%		Cell survival rate (%) ([5]; peptide 50 μM): 45.2%; Cell survival rate (%) ([5]; peptide 100 μM): 42.6%; Cell survival rate (%) ([6]; peptide 12.5 μM): 80%; Cell survival rate (%) ([6]; peptide 25 μM): 69.7%; Cell survival rate (%) ([6]; peptide 100 μM): 44.3%
CC[C@H](C)[C@H](NC(=O)[C@H](CO)NC(=O)[C@@H](NC(=O)[C@H](CC(C)C)NC(=O)[C@H](CC(C)C)NC(=O)[C@H](CC(N)=O)NC(=O)[C@H](Cc1c[nH]c2ccccc12)NC(=O)[C@H](CCC(N)=O)NC(=O)[C@H](CC(C)C)NC(=O)[C@@H]1CCCN1C(=O)[C@@H](N)Cc1ccc(O)cc1)[C@@H](C)CC)C(=O)N[C@@H](CC(C)C)C(=O)N[C@@H](C)C(=O)N[C@@H](CO)C(=O)N[C@@H](CO)C(=O)N[C@H](C(=O)NCC(=O)N[C@@H](CO)C(=O)N[C@@H](Cc1ccc(O)cc1)C(=O)N[C@@H](C)C(=O)N[C@H](C(=O)N[C@@H](CCCCN)C(=O)N[C@@H](CCCCN)C(=O)N[C@@H](CCCNC(=N)N)C(=O)N[C@H](C(=O)N[C@@H](CC(C)C)C(=O)N[C@@H](CCCNC(=N)N)C(=O)N[C@@H](CCCCN)C(=O)N[C@@H](CC(N)=O)C(=O)N[C@@H](CC(=O)O)C(=O)N[C@@H](CCCNC(=N)N)C(=O)N[C@@H](CCCCN)C(=O)N[C@@H](CCCCN)C(=O)N[C@@H](CCCNC(=N)N)C(N)=O)[C@@H](C)O)C(C)C)C(C)C [Sample 3] (H-YPLQWNLLISILASSVGSYAVKKRTLRKNDRKKR-NH2; N-terminus assumed)	83.6%	71.6%	81.5%	74.8%	101.4%	93.8%	88.5%	45.6%	78.6%	73.7%	49.3%	37.5%	79.3%	71.8%	50%	32.8%	64.6%	66.5%	54.5%		Cell survival rate (%) ([5]; peptide 50 μM): 62.5%; Cell survival rate (%) ([5]; peptide 100 μM): 47%; Cell survival rate (%) ([6]; peptide 12.5 μM): 77.9%; Cell survival rate (%) ([6]; peptide 25 μM): 65.7%; Cell survival rate (%) ([6]; peptide 100 μM): 45%
CC[C@H](C)[C@H](NC(=O)CNC(=O)[C@@H](NC(=O)[C@@H](NC(=O)CNC(=O)[C@H](CC(C)C)NC(=O)[C@@H](NC(=O)[C@H](Cc1ccccc1)NC(=O)[C@H](CO)NC(=O)[C@H](C)NC(=O)[C@@H](NC(=O)CNC(=O)[C@H](CCCCN)NC(=O)[C@H](CCSC)NC(=O)[C@H](Cc1ccccc1)NC(=O)[C@H](C)NC(=O)[C@@H](N)Cc1ccc(O)cc1)[C@@H](C)O)[C@@H](C)CC)[C@@H](C)O)C(C)C)C(=O)N[C@@H](Cc1ccccc1)C(=O)N[C@@H](Cc1ccccc1)C(=O)NCC(=O)N[C@@H](Cc1c[nH]c2ccccc12)C(=O)N[C@@H](CCCNC(=N)N)C(=O)N[C@@H](CCCNC(=N)N)C(=O)N[C@@H](CCC(N)=O)C(=O)N[C@@H](C)C(=O)N[C@@H](CCCNC(=N)N)C(=O)N[C@@H](Cc1ccccc1)C(=O)N[C@@H](CCCCN)C(N)=O [Sample 8] (H-YAFMKGTASFILGTVGIFFGWRRQARFK-NH2; N-terminus assumed)																			76%	99%	
CC[C@H](C)[C@H](NC(=O)[C@H](CO)NC(=O)[C@@H](NC(=O)[C@H](Cc1ccccc1)NC(=O)[C@H](CC(C)C)NC(=O)[C@H](CC(N)=O)NC(=O)[C@H](Cc1c[nH]c2ccccc12)NC(=O)[C@H](CCC(N)=O)NC(=O)[C@@H](N)CC(C)C)C(C)C)C(=O)N[C@H](C(=O)N[C@@H](CO)C(=O)N[C@@H](CO)C(=O)N[C@@H](CO)C(=O)N[C@H](C(=O)N[C@@H](Cc1ccccc1)C(=O)N[C@@H](CO)C(=O)N[C@@H](Cc1ccc(O)cc1)C(=O)N[C@@H](CO)C(=O)N[C@H](C(=O)N[C@@H](Cc1c[nH]c2ccccc12)C(=O)N[C@@H](CCCNC(=N)N)C(=O)N[C@@H](CCCNC(=N)N)C(=O)N[C@@H](CCC(N)=O)C(=O)N[C@@H](C)C(=O)N[C@@H](CCCNC(=N)N)C(=O)N[C@@H](Cc1ccccc1)C(=O)N[C@@H](CCCCN)C(N)=O)C(C)C)C(C)C)C(C)C [Sample 9] (H-LQWNLFVSIVSSSVFSYSVWRRQARFK-NH2; N-terminus assumed)																			73%	99%	
CC[C@H](C)[C@H](NC(=O)[C@H](C)NC(=O)[C@H](CO)NC(=O)[C@@H](NC(=O)[C@H](CC(C)C)NC(=O)[C@H](Cc1ccccc1)NC(=O)[C@H](CO)NC(=O)[C@H](Cc1c[nH]c2ccccc12)NC(=O)[C@H](CCC(N)=O)NC(=O)[C@@H](NC(=O)[C@@H]1CCCN1)C(C)C)C(C)C)C(=O)N[C@@H](C)C(=O)NCC(=O)N[C@@H](CO)C(=O)N[C@H](C(=O)N[C@@H](C)C(=O)N[C@@H](CO)C(=O)N[C@@H](Cc1ccc(O)cc1)C(=O)N[C@@H](CCCNC(=N)N)C(=O)N[C@H](C(=O)N[C@@H](Cc1c[nH]c2ccccc12)C(=O)N[C@@H](CCCNC(=N)N)C(=O)N[C@@H](CCCNC(=N)N)C(=O)N[C@@H](CCC(N)=O)C(=O)N[C@@H](C)C(=O)N[C@@H](CCCNC(=N)N)C(=O)N[C@@H](Cc1ccccc1)C(=O)N[C@@H](CCCCN)C(N)=O)C(C)C)C(C)C [Sample 11] (H-PVQWSFLVSAIAGSVASYRVWRRQARFK-NH2; N-terminus assumed)																			77%	101%	
